Results taken from patent publication US20260272920A1, “NLRP3 MODULATORS” (Zomagen Biosciences Ltd, priority 2023, published 2026).

What follows are compounds tested on NLRP3 (assay: IL-1β Assay in THP1 Cells (LPS priming + nigericin, NLRP3 activation)). Conditions: Homo sapiens, THP-1; THP1 cells primed with 100 ng/mL LPS, 10 μM nigericin 3 hours; IL-1β released in supernatant; read-out: IL-1b (IC50).
Assay type: cell-based
Method: Example 10: IL-1β Assay in THP1 Cells
THP1 cells were primed with 100 ng/mL LPS in test medium (RPMI1640+GlutaMAX+25 mM HEPES+10% HI FBS+1% Pen/Strep) overnight at 37° C. and 5% CO2. Compounds were serially diluted in test medium and added to 200 000 cells/well for 1 hour at 37° C. and 5% CO2. After 1 hour, nigericin was added at 10 μM final concentration and incubated in at 37° C. and 5% CO2 for 3 hours to induce NLRP3 activation. IL-1β released from THP1 was detected in the cell supernatant by the ELLA (Simple Plex, Bio-Techne) Human IL-1β Immunoassays. The average of the positive control (LPS+nigericin) and the negative control (LPS alone) was calculated. The % inhibition of each test well was calculated by the following formula: % inhibition per well=[(average of positive control−single well signal value)/(average of positive control−average of negative control)]*100%. The compound inhibition curve was fitted by using a four-parameter logistic dose response equation: compound concentration was converted into logarithm base 10, and its concentration and % inhibition is imported into Graphpad prism software.

Structure (SMILES)	IC50 [nM]
Cc1cc([C@H](O)[C@@H]2CCCN(C)C2)nnc1-c1ccc(C(F)(F)F)cc1 [Compound 28, (R)-(5-methyl-6-(4-(trifluoromethyl)phenyl)pyridazin-3-yl)((R)-1-methylpiperidin-3-yl)methanol]	500 to 3000
CCN1CCCC(C(O)c2cc(C)c(-c3ccc4cc[nH]c4c3)nn2)C1 (stereo not drawn) [Compound 12, (6-(1H-indol-6-yl)-5-methylpyridazin-3-yl) (1-ethylpiperidin-3-yl) methanol]	< 500
Cc1cc(C(O)C2CCCN(C)C2)nnc1-c1ccc(C(F)(F)F)cc1CC(F)(F)F (stereo not drawn) [Compound 21, (5-methyl-6-(2-(2,2,2-trifluoroethyl)-4-(trifluoromethyl)phenyl)pyridazin-3-yl)(1-methylpiperidin-3-yl)methanol]	500 to 3000
CCN1CCCC(C(O)c2cc(C)c(-c3ccc4occc4c3)nn2)C1 (stereo not drawn) [Compound 17, (6-(benzofuran-5-yl)-5-methylpyridazin-3-yl)(1-ethylpiperidin-3-yl)methanol]	< 500
Cc1cc(C(O)C2CCCN(C)C2)nnc1-c1ccc2occc2c1 (stereo not drawn) [Compound 16, (6-(benzofuran-5-yl)-5-methylpyridazin-3-yl)(1-methylpiperidin-3-yl)methanol]	< 500
CCN1CCC[C@@H]([C@@H](O)c2cc(C)c(-c3ccc(C(F)(F)F)cc3OC(F)F)nn2)C1 [Compound 33, (R)-(6-(2-(difluoromethoxy)-4-(trifluoromethyl)phenyl)-5-methylpyridazin-3-yl)((R)-1-ethylpiperidin-3-yl)methanol]	< 500
CCN1CCCC(C(O)c2cc(C)c(-c3ccc4c(F)c[nH]c4c3)nn2)C1 (stereo not drawn) [Compound 10, (1-ethylpiperidin-3-yl)(6-(3-fluoro-1H-indol-6-yl)-5-methylpyridazin-3-yl)methanol]	< 500
CCN1CCC[C@@H]([C@@H](O)c2cc(C)c(-c3ccc(C(F)(F)F)cc3)nn2)C1 [Compound 29, (R)-((R)-1-ethylpiperidin-3-yl)(5-methyl-6-(4-(trifluoromethyl)phenyl)pyridazin-3-yl)methanol]	< 500
Cc1cc([C@H](O)[C@@H]2CCCN(C)C2)nnc1-c1ccc(C(F)(F)F)cc1OC(F)F [Compound 31, (R)-(6-(2-(difluoromethoxy)-4-(trifluoromethyl)phenyl)-5-methylpyridazin-3-yl)((R)-1-methylpiperidin-3-yl)methanol]	< 500
